The values that follow come from patent US12552825B2 (Zikani Therapeutics, Inc., priority 2019, dated 2026).

Converted amounts (≈) assume the structure as drawn.

Format in all cases: cell-based
One assay deals with P. aeruginosa MP-3. In words: MIC determination by CLSI broth dilution, P. aeruginosa MP-3. The following applies: Pseudomonas aeruginosa, MP3, strain MP-3. (In general: Dilution methods test growth across graded concentrations, often in twofold steps.)
Another assay has as its system K. pneumoniae MP-546. In words: MIC determination by CLSI broth dilution, K. pneumoniae MP-546. The following applies: Klebsiella pneumoniae, MP546, CLSI broth dilution; strain MP-546.
The test system of a further assay is A. baumannii MP-15. In words: MIC determination by CLSI broth dilution, A. baumannii MP-15. The following applies: Acinetobacter baumannii, MP15, strain MP-15, read-out: MIC A. baumanii MP-15.
The subject of the next assay is E. coli MP-4. Nature of the assay: MIC determination by CLSI broth dilution, E. coli MP-4. Conditions: Escherichia coli, MP4, CLSI broth dilution; strain MP-4.
For the next assay, the system named is S. aureus MP-12. Nature of the assay: microbe, parasite or virus in culture. The following applies: Staphylococcus aureus, MP12, read-out: MIC S. aureus MP-12.

In the case of `C=C[C@@H]1COC(=O)C(C)(C)C(=O)[C@H](C)[C@@H](O[C@@H]2O[C@H](C)C[C@H](N(C)C)[C@H]2O)[C@](C)(OC)C[C@@H](C)CN1C` [Compound 14, (3R,6R,8R,9R,10R)-9-(((2S,3R,4S,6R)-4-(Dimethylamino)-3-hydroxy-6-methyltetrahydro-2H-pyran-2-yl)oxy)-8-methoxy-4,6,8,10,12,12-hexamethyl-3-vinyl-1-oxa-4-azacyclotridecane-11,13-dione], the MIC with P. aeruginosa MP-3 was over 32 µg/mL; with K. pneumoniae MP-546, 4 to 32 µg/mL (≈ 7.59 to 60.8 µM); in the assay on A. baumannii MP-15 it was over 32 µg/mL; against E. coli MP-4, 4 to 32 µg/mL (≈ 7.59 to 60.8 µM); in the assay with S. aureus MP-12 it was over 32 µg/mL.

For the compound `CO[C@]1(C)C[C@@H](C)CN(C)[C@H](CC2CCN(CC(C)(C)C)CC2)COC(=O)C(C)(C)C(=O)[C@H](C)[C@H]1O[C@@H]1O[C@H](C)C[C@H](N(C)C)[C@H]1O` [Compound 54], the MIC against P. aeruginosa MP-3 was over 32 µg/mL; in the assay with K. pneumoniae MP-546, under 4 µg/mL; in the assay with A. baumannii MP-15 it was over 32 µg/mL; in the assay with E. coli MP-4 it was under 4 µg/mL; with S. aureus MP-12, 4 to 32 µg/mL (≈ 5.99 to 47.9 µM).

With `CNC[C@H]1COC(=O)C(C)(C)C(=O)[C@H](C)[C@@H](O[C@@H]2O[C@H](C)C[C@H](N(C)C)[C@H]2O)[C@](C)(OC)C[C@@H](C)CN1` [Compound 15, (3S,6R,8R,9R,10R)-9-(((2S,3R,4S,6R)-4-(Dimethylamino)-3-hydroxy-6-methyltetrahydro-2H-pyran-2-yl)oxy)-8-methoxy-6,8,10,12,12-pentamethyl-3-((methylamino)methyl)-1-oxa-4-azacyclotridecane-11,13-dione], the MIC against P. aeruginosa MP-3 was over 32 µg/mL; against K. pneumoniae MP-546, over 32 µg/mL; in the assay with A. baumannii MP-15 it was over 32 µg/mL; against E. coli MP-4 it was 4 to 32 µg/mL (≈ 7.55 to 60.4 µM); in the assay on S. aureus MP-12, over 32 µg/mL.

On to `CO[C@]1(C)C[C@@H](C)CN(C)[C@@H](CCCN(C)C(C)C)COC(=O)C(C)(C)C(=O)[C@H](C)[C@H]1O[C@@H]1O[C@H](C)C[C@H](N(C)C)[C@H]1O` [Compound 11, (3S,6R,8R,9R,10R)-9-(((2S,3R,4S,6R)-4-(dimethylamino)-3-hydroxy-6-methyltetrahydro-2H-pyran-2-yl)oxy)-3-(3-(isopropyl(methyl)amino)propyl)-8-methoxy-4,6,8,10,12,12-hexamethyl-1-oxa-4-azacyclotridecane-11,13-dione], for which the MIC in the assay on P. aeruginosa MP-3 was over 32 µg/mL; with K. pneumoniae MP-546 it was under 4 µg/mL; with A. baumannii MP-15, over 32 µg/mL; against E. coli MP-4, under 4 µg/mL; in the assay on S. aureus MP-12, 4 to 32 µg/mL (≈ 6.52 to 52.1 µM).

In the case of `CO[C@]1(C)C[C@@H](C)CN(C)[C@H](CC2CCN(C)CC2)[C@@H](C)OC(=O)C(C)(C)C(=O)[C@H](C)[C@H]1O[C@@H]1O[C@H](C)C[C@H](N(C)C)[C@H]1O` [Compound 49], the MIC with P. aeruginosa MP-3 is over 32 µg/mL; in the assay on K. pneumoniae MP-546, 4 to 32 µg/mL (≈ 6.39 to 51.1 µM); in the assay with A. baumannii MP-15 it was over 32 µg/mL; with E. coli MP-4, under 4 µg/mL; in the assay on S. aureus MP-12 it was over 32 µg/mL.

`CO[C@]1(C)C[C@@H](C)CN(C)[C@@H](CN2CCN(S(=O)(=O)c3cn(C)cn3)CC2)[C@H](C)OC(=O)C(C)(C)C(=O)[C@H](C)[C@H]1O[C@@H]1O[C@H](C)C[C@H](N(C)C)[C@H]1O` [Compound 81, (2S,3S,6R,8R,9R,10R)-9-(((2S,3R,4S,6R)-4-(dimethylamino)-3-hydroxy-6-methyltetrahydro-2H-pyran-2-yl)oxy)-8-methoxy-2,4,6,8,10,12,12-heptamethyl-3-((4-((1-methyl-1H-imidazol-4-yl)sulfonyl)piperazin-1-yl)methyl)-1-oxa-4-azacyclotridecane-11,13-dione]: the MIC was over 32 µg/mL against P. aeruginosa MP-3; over 32 µg/mL against K. pneumoniae MP-546; over 32 µg/mL with A. baumannii MP-15; over 32 µg/mL in the assay on E. coli MP-4; 4 to 32 µg/mL (≈ 5.28 to 42.3 µM) with S. aureus MP-12.

Consider `CO[C@]1(C)C[C@@H](C)CN(C)[C@@H](CN(C)C(=O)CN(C)C)COC(=O)C(C)(C)C(=O)[C@H](C)[C@H]1O[C@@H]1O[C@H](C)C[C@H](N(C)C)[C@H]1O` [Compound 13, 2-(dimethylamino)-N-(((3S,6R,8R,9R,10R)-9-(((2S,3R,4S,6R)-4-(dimethylamino)-3-hydroxy-6-methyltetrahydro-2H-pyran-2-yl)oxy)-8-methoxy-4,6,8,10,12,12-hexamethyl-11,13-dioxo-1-oxa-4-azacyclotridecan-3-yl)methyl)-N-methylacetamide], for which the MIC against P. aeruginosa MP-3 was over 32 µg/mL; against K. pneumoniae MP-546, 4 to 32 µg/mL (≈ 6.36 to 50.9 µM); with A. baumannii MP-15 it was over 32 µg/mL; in the assay on E. coli MP-4, 4 to 32 µg/mL (≈ 6.36 to 50.9 µM); with S. aureus MP-12 it was over 32 µg/mL.

`CO[C@]1(C)C[C@@H](C)CN(C)[C@@H](CC2CCN(C3CC3)CC2)COC(=O)C(C)(C)C(=O)[C@H](C)[C@H]1O[C@@H]1O[C@H](C)C[C@H](N(C)C)[C@H]1O` [Compound 69]: the MIC in the assay on P. aeruginosa MP-3 was over 32 µg/mL; with K. pneumoniae MP-546, 4 to 32 µg/mL (≈ 6.27 to 50.2 µM); in the assay on A. baumannii MP-15, over 32 µg/mL; against E. coli MP-4, 4 to 32 µg/mL (≈ 6.27 to 50.2 µM); with S. aureus MP-12, 4 to 32 µg/mL (≈ 6.27 to 50.2 µM).

Turning to `CO[C@]1(C)C[C@@H](C)CN(C)[C@@H](CCCN(C)C)COC(=O)C(C)(C)C(=O)[C@H](C)[C@H]1O[C@@H]1O[C@H](C)C[C@H](N(C)C)[C@H]1O` [Compound 6, (3S,6R,8R,9R,10R)-9-(((2S,3R,4S,6R)-4-(dimethylamino)-3-hydroxy-6-methyltetrahydro-2H-pyran-2-yl)oxy)-3-(3-(dimethylamino)propyl)-8-methoxy-4,6,8,10,12,12-hexamethyl-1-oxa-4-azacyclotridecane-11,13-dione], the MIC was over 32 µg/mL against P. aeruginosa MP-3; under 4 µg/mL against K. pneumoniae MP-546; over 32 µg/mL in the assay with A. baumannii MP-15; under 4 µg/mL in the assay with E. coli MP-4; over 32 µg/mL in the assay on S. aureus MP-12.

As to `CNC[C@H]1COC(=O)C(C)(C)C(=O)[C@H](C)[C@@H](O[C@@H]2O[C@H](C)C[C@H](N(C)C)[C@H]2O)[C@](C)(OC)C[C@@H](C)CN1C` [Compound 9, (3S,6R,8R,9R,10R)-9-(((2S,3R,4S,6R)-4-(Dimethylamino)-3-hydroxy-6-methyltetrahydro-2H-pyran-2-yl)oxy)-8-methoxy-4,6,8,10,12,12-hexamethyl-3-((methylamino)methyl)-1-oxa-4-azacyclotridecane-11,13-dione], the MIC is over 32 µg/mL in the assay with P. aeruginosa MP-3; 4 to 32 µg/mL (≈ 7.36 to 58.9 µM) against K. pneumoniae MP-546; over 32 µg/mL in the assay on A. baumannii MP-15; 4 to 32 µg/mL (≈ 7.36 to 58.9 µM) against E. coli MP-4; over 32 µg/mL with S. aureus MP-12.

For `CCC(O)C(C)CN1CCC(C[C@@H]2COC(=O)C(C)(C)C(=O)[C@H](C)[C@@H](O[C@@H]3O[C@H](C)C[C@H](N(C)C)[C@H]3O)[C@](C)(OC)C[C@@H](C)CN2C)CC1` (stereo partly drawn) [Compound 35], the MIC in the assay with P. aeruginosa MP-3 is over 32 µg/mL; in the assay with K. pneumoniae MP-546, under 4 µg/mL; with A. baumannii MP-15, over 32 µg/mL; in the assay with E. coli MP-4, under 4 µg/mL; with S. aureus MP-12, 4 to 32 µg/mL (≈ 5.73 to 45.8 µM).

As to `CO[C@]1(C)C[C@@H](C)CN(C)[C@@H](CN(C)Cc2nccn2C)COC(=O)C(C)(C)C(=O)[C@H](C)[C@H]1O[C@@H]1O[C@H](C)C[C@H](N(C)C)[C@H]1O` [Compound 104, (3S,6R,8R,9R,10R)-9-(((2S,3R,4S,6R)-4-(Dimethylamino)-3-hydroxy-6-methyltetrahydro-2H-pyran-2-yl)oxy)-8-methoxy-4,6,8,10,12,12-hexamethyl-3-((methyl((1-methyl-11H-imidazol-2-yl)methyl)amino)methyl)-1-oxa-4-azacyclotridecane-11,13-dione], the MIC in the assay with P. aeruginosa MP-3 was over 32 µg/mL; in the assay on K. pneumoniae MP-546 it was over 32 µg/mL; in the assay on A. baumannii MP-15, over 32 µg/mL; in the assay with E. coli MP-4 it was 4 to 32 µg/mL (≈ 6.27 to 50.2 µM); with S. aureus MP-12, over 32 µg/mL.
